# Reference: US20240366598A1, “GLUCOSE-DEPENDENT INSULINOTROPIC POLYPEPTIDE RECEPTOR ANTAGONISTS AND USES THEREOF” (Pfizer Inc., priority 2023, published 2024)
# Target: T1, human Glucose-dependent Insulinotropic Polypeptide Receptor (hGIPR) (Homo sapiens, UniProt P48546)
# T1 sequence (P48546 22-466): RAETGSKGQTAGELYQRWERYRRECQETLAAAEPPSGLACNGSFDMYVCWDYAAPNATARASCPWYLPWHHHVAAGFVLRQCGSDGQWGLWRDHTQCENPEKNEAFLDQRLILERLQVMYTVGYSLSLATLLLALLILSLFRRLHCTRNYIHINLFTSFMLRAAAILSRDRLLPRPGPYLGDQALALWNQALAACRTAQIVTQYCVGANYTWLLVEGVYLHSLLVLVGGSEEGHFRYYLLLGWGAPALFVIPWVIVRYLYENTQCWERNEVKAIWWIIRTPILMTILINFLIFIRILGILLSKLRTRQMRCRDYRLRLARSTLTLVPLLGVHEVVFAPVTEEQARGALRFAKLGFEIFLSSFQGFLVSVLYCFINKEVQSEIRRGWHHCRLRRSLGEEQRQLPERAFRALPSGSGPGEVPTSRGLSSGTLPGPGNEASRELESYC
# Experiment: Functional in vitro GIPR antagonist potency assay (cAMP HTRF, CHO-K1 cells stably expressing hGIPR, hGIP stimulation at about EC80)
# Assay type: cell-based
# Details: geometric mean, hGIP at estimated EC80, examples marked ^2: overall geometric mean of multiple forms (including salts) tested
# In short: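 CHO-K1 cells expressing hGIPR (2,000 per well) in HBSS/HEPES/0.1% BSA with 200 μM IBMX were preincubated 2 h at 37 °C with an 11-point compound series (0.5% DMSO). hGIP at about EC80 was then added for 30 min, and cAMP was read by HTRF (665/620 nm). Data were normalized between hGIP alone and full antagonism by a reference antagonist at 80 μM.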
row,SMILES,IC50 [nM]
1,"CCC(C)c1ccc(NC(=O)N2CCC[C@@H]2C(=O)Nc2ccc(-c3ccc(C(=O)O)cc3)cc2)cc1 (stereo partly drawn) [Example 111, 4′-[(1-{[4-(butan-2-yl)phenyl]carbamoyl}-D-prolyl)amino][1,1′-biphenyl]-4-carboxylic acid]",11
2,"O=C(O)c1ccc(-c2ccc(NC(=O)[C@H]3CCCN3C(=O)Nc3ccc(C(F)(F)F)cc3)cc2)cc1 [Example 16, Ammonium 4′-[(1-{[4-(trifluoromethyl)phenyl]carbamoyl}-D-prolyl)amino][1,1′-biphenyl]-4-carboxylate]",3.7
3,"Cc1nc(C(=O)O)ccc1-c1ccc(NC(=O)[C@H]2CCCN2C(=O)Nc2ccc(C(C)C)c(F)c2)cc1 [Example 27, 5-{4-[(1-{[3-Fluoro-4-(propan-2-yl)phenyl]carbamoyl}-D-prolyl)amino]phenyl}-6-methylpyridine-2-carboxylic acid]",4.8
4,"COc1cc(C(=O)O)c(F)cc1-c1ccc(NC(=O)[C@H]2CCCN2C(=O)Nc2ccc(C(C)C)cc2)cc1 [Example 81, 5-fluoro-2-methoxy-4′-[(1-{[4-(propan-2-yl)phenyl]carbamoyl}-D-prolyl)amino][1,1′-biphenyl]-4-carboxylic acid]",210
5,"O=C(O)c1ccc(-c2ccc(NC(=O)[C@H]3CCCN3C(=O)Nc3ccc(C4CC4)cc3)cc2)cc1 [Example 7, Ammonium 4′-({1-[(4-cyclopropylphenyl)carbamoyl]-D-prolyl}amino)[1,1′-biphenyl]-4-carboxylate]",8.1
6,"CC(C)c1ccc(NC(=O)N2CCC[C@@H]2C(=O)Nc2ccc(-c3ncc(C(=O)O)cn3)cc2)cc1 [Example 8, ammonium 2-{4-[(1-{[4-(propan-2-yl)phenyl]carbamoyl}-D-prolyl)amino]phenyl}pyrimidine-5-carboxylate]",150
7,"COc1cc(C(F)(F)F)ccc1NC(=O)N1CCC[C@@H]1C(=O)Nc1ccc(-c2ccc(C(=O)O)cc2)cc1 [Example 134, 4′-[(1-{[2-methoxy-4-(trifluoromethyl)phenyl]carbamoyl}-D-prolyl)amino][1,1′-biphenyl]-4-carboxylic acid]",140
8,"CC(C)c1ccc(CNC(=O)N2CCC[C@@H]2C(=O)Nc2ccc(-c3ccc(C(=O)O)cc3)cc2)c(F)c1 [Example 127, 4′-{[1-({[2-fluoro-4-(propan-2-yl)phenyl]methyl}carbamoyl)-D-prolyl]amino}[1,1′-biphenyl]-4-carboxylic acid]",69
9,"CC(C)c1ccc(NC(=O)N2CCC[C@@H]2C(=O)Nc2ccc(-c3cc(Cl)c(C(=O)O)cc3F)cc2)cc1 [Example 98, 5-chloro-2-fluoro-4′-[(1-{[4-(propan-2-yl)phenyl]carbamoyl}-D-prolyl)amino][1,1′-biphenyl]-4-carboxylic acid]",30
10,"CC(C)c1ccc(NC(=O)N2CCC[C@@H]2C(=O)Nc2ccc(-c3ccc(C(=O)O)cc3)cc2)cc1 (racemic) [Example 44, 4′-[(1-{[4-(propan-2-yl)phenyl]carbamoyl}prolyl)amino][1,1′-biphenyl]-4-carboxylic acid]",6.8
11,"O=C(O)c1ccc(-c2ccc(NC(=O)[C@H]3CCCN3C(=O)Nc3ccc(C4CC4)c(C(F)(F)F)c3)cc2)cc1 [Example 26, 4′-[(1-{[4-Cyclopropyl-3-(trifluoromethyl)phenyl]carbamoyl}-D-prolyl)amino][1,1′-biphenyl]-4-carboxylic acid]",2.1
12,"Cc1cc(-c2ccc(NC(=O)[C@H]3CCCN3C(=O)Nc3ccc(C(C)C)cc3)cc2)cnc1C(=O)O [Example 58, 3-methyl-5-{4-[(1-{[4-(propan-2-yl)phenyl]carbamoyl}-D-prolyl)amino]phenyl}pyridine-2-carboxylic acid]",50
13,"O=C(O)c1ccc(-c2ccc(NC(=O)[C@H]3CCCN3C(=O)NCc3cnc(C(F)(F)F)nc3)cc2)cc1 [Example 108, 4′-{[1-({[2-(trifluoromethyl)pyrimidin-5-yl]methyl}carbamoyl)-D-prolyl]amino}[1,1′-biphenyl]-4-carboxylic acid]",260
14,"CC(C)c1ccc(NC(=O)N2C[C@H]3C[C@H]3[C@@H]2C(=O)Nc2ccc(-c3ccc(C(=O)O)cc3)cn2)cc1 [Example 123, 4-(6-{[(1R,2R,5S)-3-{[4-(propan-2-yl)phenyl]carbamoyl}-3-azabicyclo[3.1.0]hexane-2-carbonyl]amino}pyridin-3-yl)benzoic acid]",11
15,"CC(C)c1ccc(NC(=O)N2C[C@@H]3C[C@@H]3[C@@H]2C(=O)Nc2ccc(-c3ccc(C(=O)O)cc3)cc2)cc1 [Example 105, 4′-{[(1S,2R,5R)-3-{[4-(propan-2-yl)phenyl]carbamoyl}-3-azabicyclo[3.1.0]hexane-2-carbonyl]amino}[1,1′-biphenyl]-4-carboxylic acid]",8.8
16,"CC(C)c1ccc(CNC(=O)N2CCC[C@@H]2C(=O)Nc2ccc(-c3ccc(C(=O)O)cc3)cc2)cc1 [Example 109, 4′-{[1-{{[4-(propan-2-yl)phenyl]methyl}carbamoyl)-D-prolyl]amino}[1,1′-biphenyl]-4-carboxylic acid]",5.1
17,"Cc1ccc(CNC(=O)N2CCC[C@@H]2C(=O)Nc2ccc(-c3ccc(C(=O)O)cc3)cc2)cc1F [Example 129, 4′-[(1-{[(3-fluoro-4-methylphenyl)methyl]carbamoyl}-D-prolyl)amino][1,1′-biphenyl]-4-carboxylic acid]",14
18,"CC(C)c1ccc(NC(=O)N2CCC[C@@H]2C(=O)Nc2c(F)cc(-c3ccc(C(=O)O)cc3)cc2F)cc1 [Example 15, 3′,5′-difluoro-4′-[(1-{[4-(propan-2-yl)phenyl]carbamoyl}-D-prolyl)amino][1,1′-biphenyl]-4-carboxylic acid]",8.1
19,"CC(C)c1ccc(NC(=O)N2CCC[C@@H]2C(=O)Nc2ccc(-c3ccc(C(=O)O)cc3)nc2)cc1 [Example 18, 4-{5-[(1-{[4-(Propan-2-yl)phenyl]carbamoyl}-D-prolyl)amino]pyridin-2-yl}benzoic acid]",15

# Other lines, results leading:
row,IC50 [nM],SMILES
1,14,"CC(C)c1ccc(NC(=O)N2CCC[C@@H]2C(=O)Nc2ccc(-c3ccc(C(=O)O)cc3)nc2)cc1F [Example 194, 4-{5-[(1-{[3-fluoro-4-(propan-2-yl)phenyl]carbamoyl}-D-prolyl)amino]pyridin-2-yl}benzoic acid]"
2,90,"Cc1nc(C(=O)O)ccc1-c1ccc(NC(=O)[C@H]2CCCN2C(=O)Nc2cnc(C(C)C)c(F)c2)cc1 [Example 213, 5-{4-[(1-{[5-fluoro-6-(propan-2-yl)pyridin-3-yl]carbamoyl}-D-prolyl)amino]phenyl}-6-methylpyridine-2-carboxylic acid]"
3,43,"Cc1cc(NC(=O)N2CCC[C@@H]2C(=O)Nc2ccc(-c3cccc(C(=O)O)c3)cn2)ncc1C(C)C [Example 184, 3-{6-[(1-{[4-methyl-5-(propan-2-yl)pyridin-2-yl]carbamoyl}-D-prolyl)amino]pyridin-3-yl}benzoic acid]"
4,15,"O=C(O)c1ccc(-c2ccc(NC(=O)[C@H]3CCCN3C(=O)Nc3ccc(C(F)(F)F)c(F)c3)cn2)cc1 [Example 215, 4-{5-[(1-{[3-fluoro-4-(trifluoromethyl)phenyl]carbamoyl}-D-prolyl)amino]pyridin-2-yl}benzoic acid]"
5,9.8,"CC(C)Cc1ccc(CNC(=O)N2CCC[C@@H]2C(=O)Nc2ccc(-c3ccc(C(=O)O)cc3)cc2)cc1 [Example 137, 4′-{[1-{{[4-(2-methylpropyl)phenyl]methyl}carbamoyl)-D-prolyl]amino}[1,1′-biphenyl]-4-carboxylic acid]"
6,35,"O=C(O)c1ccc(-c2ccc(NC(=O)[C@H]3CCCN3C(=O)NCc3ccc(C(F)(F)F)cc3)cc2)cn1 [Example 195, 5-(4-{[1-({[4-(trifluoromethyl)phenyl]methyl}carbamoyl)-D-prolyl]amino}phenyl)pyridine-2-carboxylic acid]"
7,22,"Cc1cc(NC(=O)N2CCC[C@@H]2C(=O)Nc2ccc(-c3cccc(C(=O)O)c3)cn2)ncc1C(F)(F)F [Example 202, 3-{6-[(1-{[4-methyl-5-(trifluoromethyl)pyridin-2-yl]carbamoyl}-D-prolyl)amino]pyridin-3-yl}benzoic acid]"
8,75,"Cc1cc(NC(=O)[C@H]2CCCN2C(=O)Nc2ccc(C3CCC3)cc2)cnc1-c1ccc(C(=O)O)cc1 [Example 160, 4-[5-({1-[(4-cyclobutylphenyl)carbamoyl]-D-prolyl}amino)-3-methylpyridin-2-yl]benzoic acid]"
9,21,"O=C(O)c1ccc(-c2ccc(NC(=O)[C@H]3CCCN3C(=O)Nc3ccc(C4CC4)c(F)c3)cc2)cc1 [Example 149, 4′-({1-[(4-cyclopropyl-3-fluorophenyl)carbamoyl]-D-prolyl}amino)[1,1′-biphenyl]-4-carboxylic acid]"
10,11,"O=C(O)c1ccc(-c2ccc(NC(=O)[C@H]3CCCN3C(=O)Nc3ccc(C4(C(F)(F)F)CC4)cc3)nc2)cc1 [Example 178, 4-(6-{[1-({4-[1-(trifluoromethyl)cyclopropyl]phenyl}carbamoyl)-D-prolyl]amino}pyridin-3-yl)benzoic acid]"
11,35,"COc1cc(NC(=O)N2CCC[C@@H]2C(=O)Nc2ccc(-c3ccc(C(=O)O)cc3)cc2)ccc1C(F)(F)F [Example 143, 4′-[(1-{[3-methoxy-4-(trifluoromethyl)phenyl]carbamoyl}-D-prolyl)amino][1,1′-biphenyl]-4-carboxylic acid]"
